Source: patent US20260226493A1, “HERBICIDE RESISTANT PLANTS” (SYNGENTA CROP PROTECTION AG, priority 2023, published 2026)

Assays:
Assay in all cases: BioA enzyme activity with DMSO or herbicide in vitro
Type in all cases: biochemical
[1] = test system: Streptomyces viridochromogenes BioA; details: SAM in substrate mix
Description: (§1) A pet-24 plasmid containing a DNA sequence encoding each identified variant mutant of BIO3-BIO1 derived from Arabidopsis thaliana from example 5 above, as shown in Table 13 below and as shown in full in SEQ ID NOs: 15 to 155, codon-optimised for expression in E. coli, with an N-terminal 6×His-tag and thrombin cleavage site and under control of a T7 promoter, and was synthesised by Twist Bioscience, in a similar manner to SEQ ID NO:311. These plasmids were then expressed in E. coli BL21 (DE3) bioA with 50 μg/mL kanamycin and 25 μg/mL chloramphenicol selection. Overnight cultures grown at 37° C. were used to inoculate 8×500 mL AIM in shake flasks at a ratio of 1:100. Cultures were grown at 37° C., 200 rpm for 3.5 hours and then overnight at 20° C. Cells were harvested by centrifugation for 30 minutes at 10 000 g. Cells were stored at −80° C. until extraction. 30 g of cell pellet from was thawed in 120 mL of IMAC buffer A (20 mM HEPES pH7.5, 25 mM imidazole, 500 mM sodium chloride, 0.15 mM pyridoxal phosphate, 0.5 mM TCEP, 1× complete Protease Inhibitor Tablet (Roche)). The resuspension was passed through a cell disrupter at 18 000 PSI and centrifuged at 50 000 g for 25 minutes at 4° C. The His-tagged BIO3-BIO1 protein was purified from the extract supernatant on an AKTA avant chromatography system (Cytiva) using a HisTrap FF column and eluted in IMAC buffer B ((20 mM HEPES pH7.5, 500 mM imidazole, 500 mM sodium chloride, 0.15 mM pyridoxal phosphate, 0.5 mM TCEP) followed by SEC using a HiLoad 26/60 Superdex200 column in SEC buffer (25 mM HEPES pH7.5, 150 mM sodium chloride, 0.15 mM pyridoxal phosphate, 0.5 mM TCEP). Protein concentration was measured and calculated using the absorbance at 280 nm. Extracts were diluted 1 in 4 and 10 uL was analysed by SDS PAGE.
(§2) To measure BIO3-BIO1 mutant enzyme activity in the presence of herbicide, herbicides were incubated with 20 μL of enzyme mix (100 mM EPPS pH 8.6, 0.1 mM pyridoxal phosphate, 0.1 mg/mL BSA, 50 nM BIO3-BIO1 enzyme) for 10 minutes at 20° C. in a well of a 96-well half-area black plate, followed by the addition of 20 μL of substrate mix (final concentration of 100 mM EPPS pH 8.6, 0.1 mM pyridoxal phosphate, 0.1 mg/mL BSA, 100 μM spermidine, 20 μM KAPA, 100 mM NaCO3) and further incubation for 75 minutes at 20° C. The reaction was terminated by the addition of 50 μL of derivatisation mix (final concentration of 250 mM borate NaOH pH 9.4, 3.6 mM o-phthalaldehyde, 7 mM β-mercaptoethanol, 17% (v/v) ethanol, 3.6% (v/v) methanol). The fluorescent product produced by the reaction of DAPA with o-phthalaldehyde and 7 mM β-mercaptoethanol was measured at 470 nm after excitation at 410 nm. The percentage inhibition was calculated as the activity in the presence of one of three concentrations of each herbicide compound A to M (note that the compounds labelled as A to M are identified hereinabove in the relevant section of the description) as a percentage of the activity in DMSO (Table 12 and 13). The percentage activity versus WT was also calculated and is shown in Table 13 and 14 (NT indicates mutation not tested in table 13, note that these mutations are tested at different compound concentrations for compounds L, M and C, and the results are shown in table 14).
(§3) Protein of Escherichia coli BioA (SEQ ID NO:159), Pantoea ananatis BioA (SEQ ID NO:167), Streptomyces viridochromogenes BioA (SEQ ID NO:170), Cryptosporidium andersoni BioA (SEQ ID NO:160), Stenotrophomonas maltophilia BioA (SEQ ID NO:171), Chroococcidiopsis BioA (SEQ ID NO:184), Pedobacter hartonius BioA (SEQ ID NO:181), Chitinophaga filiformis BioA (SEQ ID NO:180), Tenacibaculum adriaticum BioA (SEQ ID NO:185) and Bacillus subtilis BioA (SEQ ID NO:166) was prepared using the method in Example 6. BioA enzyme activity in the presence of herbicide or DMSO in vitro for each of the proteins was assayed according to the enzyme assay method in Example 6, except in some reactions spermidine was replaced with 2 mM S-Adenosyl methionine.

[2] = test system: Tenacibaculum adriaticum BioA; details: spermidine in substrate mix
Description: as §1, §2, §3

[3] = test system: Pantoea ananatis BioA; details: SAM in substrate mix
Description: as §1, §2, §3

[4] = test system: Bacillus subtilis BioA; details: spermidine in substrate mix
Description: as §1, §2, §3

Row | Structure (SMILES) | % Inhibition relative to DMSO treatment ([1]; 0.5 μM) [%] | % Inhibition relative to DMSO treatment ([2]; 0.5 μM) [%] | % Inhibition relative to DMSO treatment ([3]; 0.5 μM) [%] | % Inhibition relative to DMSO treatment ([4]; 0.5 μM) [%] | other results
1 | CCn1c(C)c(-c2ccc(F)cc2F)c(=O)c(C(=O)O)c1-c1ccc(Cl)c(Cl)c1 [Compound C, 2-(3,4-dichlorophenyl)-5-(2,4-difluorophenyl)-1-ethyl-6-methyl-4-oxo-pyridine-3-carboxylic acid] | 0 | 19 | 11 | 0 | –
2 | CCn1c(Cn2ccc(C(F)(F)F)n2)cc(=O)c(C(=O)O)c1-c1ccc(Cl)c(Cl)c1 [Compound L, 2-(3,4-dichlorophenyl)-1-ethyl-4-oxo-6-[[3-(trifluoromethyl)pyrazol-1-yl]methyl]pyridine-3-carboxylic acid] | 0 | 16 | 9 | 0 | % Inhibition relative to DMSO treatment ([1]; 31 μM): 16%; % Inhibition relative to DMSO treatment ([1]; 500 μM): 34%; % Inhibition relative to DMSO treatment ([3]; 31 μM): 0%; % Inhibition relative to DMSO treatment ([3]; 500 μM): 23%
3 | CC(O)C(N)CCCCC(=O)O.Cl (centres unmarked) [Compound B, [5-carboxy-1-(1-hydroxyethyl)pentyl]ammonium chloride] | – | – | – | – | % Inhibition relative to DMSO treatment ([1]; 200 μM): 0%; % Inhibition relative to DMSO treatment ([2]; 200 μM): 18%; % Inhibition relative to DMSO treatment ([3]; 200 μM): 15%; % Inhibition relative to DMSO treatment ([4]; 200 μM): 0%
4 | CCn1c(C)c(-c2cc(OC(F)(F)F)ccc2Cl)c(=O)c(C(=O)O)c1-c1ccc(Cl)c(Cl)c1 [Compound D, 5-[2-chloro-5-(trifluoromethoxy)phenyl]-2-(3,4-dichlorophenyl)-1-ethyl-6-methyl-4-oxo-pyridine-3-carboxylic acid] | 0 | 5 | 6 | 0 | –
5 | CCOC(=O)c1nn(-c2ccc3c(c2)OC(F)(F)C(F)(F)O3)c2cccc(C(C)=O)c2c1=O [Compound A, ethyl 5-acetyl-4-oxo-1-(2,2,3,3-tetrafluoro-1,4-benzodioxin-6-yl)cinnoline-3-carboxylate] | – | – | – | – | % Inhibition relative to DMSO treatment ([1]; 25 μM): 0%; % Inhibition relative to DMSO treatment ([2]; 25 μM): 14%; % Inhibition relative to DMSO treatment ([3]; 25 μM): 7%; % Inhibition relative to DMSO treatment ([4]; 25 μM): 0%
6 | CCn1c(-c2ccc(Cl)c(Cl)c2)c(C(=O)O)c(=O)c2cc(F)ccc21 [Compound M, 2-(3,4-dichlorophenyl)-1-ethyl-6-fluoro-4-oxo-quinoline-3-carboxylic acid] | 0 | 13 | 11 | 4 | –
7 | C[C@@H](N)COc1cccc(C(=O)O)n1.Cl.Cl [Compound E, [(1R)-2-(6-carboxypyridin-1-ium-2-yl)oxy-1-methyl-ethyl]ammonium dichloride] | – | – | – | – | % Inhibition relative to DMSO treatment ([1]; 200 μM): 0%; % Inhibition relative to DMSO treatment ([2]; 200 μM): 16%; % Inhibition relative to DMSO treatment ([3]; 200 μM): 15%; % Inhibition relative to DMSO treatment ([4]; 200 μM): 0%
